Data as given in patent US4275071A, “Imidazole derivatives” (Recordati S.A., priority 1978, dated 1981).
Where two headings read alike, the source gives them in different places.

Experiments:
[1] = test system: maximum electroshock seizure in mice; assay: Maximum electroshock seizure test (MES) in the mouse; assay type: in vivo, mouse (albino race); conditions: read-out: ED50 - MES
[2] = test system: pentylenetetrazol (Metrazol) seizure in mice; assay: Subcutaneous pentylenetetrazol (Metrazol) seizure threshold test (MET) in the mouse; assay type: in vivo; conditions: 1 h, read-out: ED50 - MET
in vivo = conditions: mouse, in vivo
From the text: (§1) As to MET, it is known that pentylene-tetrazol (metrazol) administered subcutaneously to mice in a loose fold of skin on the back of the neck, produces seizures. […] Failure to observe even a threshold seizure is defined as protection. In the same table the LD50 values (lethal dose 50), evaluated in the mouse both I.p. and per os, are given.

mouse = assay: in vivo; conditions: i.p.
From the text: as §1

[3] = ip, mouse, i.p., electroshock 60 Hz, 0.2 sec, 25 mA, 30 or 60 minutes after administration
[4] = po, mouse, os, electroshock 60 Hz, 0.2 sec, 25 mA, 30 or 60 minutes after administration
[5] = ip, mouse, i.p., pentylenetetrazol 130 mg/Kg s.c. 30 minutes after administration, observed 60 minutes
[6] = po, mouse, os, pentylenetetrazol 130 mg/Kg s.c. 60 minutes after administration, observed 60 minutes

Row | SMILES | ED50 [1, 3] | ED50 [1, 4] | ED50 ([2]; Mus musculus, ip) | ED50 ([2]; Mus musculus, po) | ED50 ([1]; Mus musculus, ip) | ED50 ([1]; Mus musculus, po) | LD50 (in vivo; ip) | LD50 (in vivo; po) | LD50 (mouse) | ED50 [2, 5] | ED50 [2, 6]
1 | OC(Cn1ccnc1)c1ccc(CCc2ccccc2)cc1 (stereo not drawn) [15/1533, 4-[1"-hydroxy-2"-(N-imidazolyl)-ethyl]-bibenzyl] | 10 mg/kg | 12 mg/kg | 9 mg/kg | 10 mg/kg |  |  |  |  |  |  | 
2 | O=C(Cn1ccnc1)c1ccc(C2CCCCC2)cc1 [15/1803] |  |  | 18 mg/kg | 32 mg/kg | 66 mg/kg | 92 mg/kg |  |  |  |  | 
3 | Cc1cc(C)c(C)c(C(=O)Cn2ccnc2)c1C [Compound 1323, 3-(N-imidazolyl-acetyl)-durene] |  |  | 19 mg/kg | 28 mg/kg | 18 mg/kg | 33 mg/kg | 420 mg/kg | 1.17 mg/kg |  |  | 
4 | O=C(Cn1ccnc1)c1ccc(-c2ccccc2)cc1 [Compound 1341, 4-(N-imidazolyl-acetyl)-biphenyl] |  |  | 28 mg/kg | 10 mg/kg | 54 mg/kg | 76 mg/kg |  |  |  |  | 
5 | OC(Cn1ccnc1)c1ccc(-c2ccccc2)cc1 (stereo not drawn) [Compound 1342, 4-[1"-hydroxy-2"-(N-imidazolyl)-ethyl]-biphenyl] |  |  | 25 mg/kg | 20 mg/kg | 25 mg/kg | 25 mg/kg | 1.15 mg/kg |  |  |  | 
6 | Cc1c(C)c([N+](=O)[O-])c(C)c(C)c1C(=O)Cn1ccnc1 [Compound 1429, 3-(N-imidazolyl-acetyl)-6-nitro-durene] | 75 mg/kg | 54 mg/kg | 100 mg/kg | 52 mg/kg |  |  |  |  |  |  | 
7 | CC(C)CCSc1ccc(C(O)Cn2ccnc2)cc1 (stereo not drawn) [Compound 1455] | 15 mg/kg | 31 mg/kg | 19 mg/kg | 22 mg/kg |  |  | 420 mg/kg |  |  |  | 
8 | Cc1c(C)c(C(=O)Cn2ccnc2)c(C)c(C)c1Br [Compound 1457, 3-(N-imidazolyl-acetyl)-6-bromo-durene] |  |  | 90 mg/kg | 57 mg/kg | 180 mg/kg | 190 mg/kg |  |  |  |  | 
9 | CC(C)(C(=O)c1ccc(-c2ccccc2)cc1)n1ccnc1 [Compound 1488, 4-[2"-methyl-2"-(N-imidazolyl)-propionyl]-biphenyl] |  |  | 25 mg/kg | 37 mg/kg | 30 mg/kg | 34 mg/kg |  | 1.87 mg/kg |  |  | 
10 | O=C(CCn1ccnc1)c1ccc(-c2ccccc2)cc1 [Compound 1490, 4-[3"-(N-imidazolyl)-propionyl]-biphenyl] |  |  | 15 mg/kg | 30 mg/kg | 60 mg/kg | 36 mg/kg |  |  | 360 mg/kg |  | 
11 | CC(C)(C(O)c1ccc(-c2ccccc2)cc1)n1ccnc1 (stereo not drawn) [Compound 1492] | 24 mg/kg | 27 mg/kg |  |  |  |  | 420 mg/kg | 2400 mg/kg |  | 10 mg/kg | 14 mg/kg
12 | Cc1c(C)c(C(O)Cn2ccnc2)c(C)c(C)c1Cl (stereo not drawn) [Compound 1515, 3-[1'-hydroxy-2'-(N-imidazolyl)-ethyl]-6-chloro-durene] | 300 mg/kg | 150 mg/kg | 150 mg/kg | 75 mg/kg |  |  |  |  |  |  | 
13 | Cc1c(C)c(C)c(C(O)Cn2ccnc2)c(C)c1C (stereo not drawn) [Compound 1516, 3-[1'-hydroxy-2'-(N-imidazolyl)-ethyl]-6-methyl-durene] | 46 mg/kg | 57 mg/kg |  |  |  |  | 655 mg/kg | 1800 mg/kg |  | 13 mg/kg | 35 mg/kg
14 | Cc1c(C)c(C(=O)Cn2ccnc2)c(C)c(C)c1Cl [Compound 1517, 3-(N-imidazolyl-acetyl)-6-chloro-durene] | 80 mg/kg | 80 mg/kg | 150 mg/kg | 150 mg/kg |  |  |  |  |  |  | 
15 | Cc1c(C)c(C)c(C(=O)Cn2ccnc2)c(C)c1C [Compound 1518, 3-(N-imidazolyl-acetyl)-6-methyl-durene] | 13 mg/kg | 45 mg/kg | 23 mg/kg | 50 mg/kg |  |  |  | 1800 mg/kg |  |  | 
16 | O=C(Cn1ccnc1)c1ccc(CCc2ccccc2)cc1 [Compound 1532, 4-(N-imidazolyl-acetyl)-bibenzyl] |  |  | 11 mg/kg | 17 mg/kg | 11 mg/kg | 37 mg/kg |  | 1.55 mg/kg | 300 mg/kg |  | 
17 | OC(Cn1ccnc1)c1ccc(C2CCCCC2)cc1 (stereo not drawn) [Compound 1534, 1-[1'-hydroxy-2'-(N-imidazolyl)-ethyl]-4-cyclohexyl-benzene] | 50 mg/kg | 60 mg/kg |  |  |  |  | 490 mg/kg | 2700 mg/kg |  | 25 mg/kg | 27 mg/kg
18 | CC(C(O)c1ccc(Sc2ccccc2)cc1)n1ccnc1 (stereo not drawn) [Compound 1540] |  |  | 39 mg/kg | 150 mg/kg | 155 mg/kg | 150 mg/kg |  |  |  |  | 
19 | CC(C)(C(O)c1ccc(Sc2ccccc2)cc1)n1ccnc1 (stereo not drawn) [Compound 1541] |  |  | 23 mg/kg | 135 mg/kg | 50 mg/kg | 190 mg/kg |  |  |  |  | 
20 | O=C(OC(Cn1ccnc1)c1ccc(-c2ccccc2)cc1)c1ccccc1 (stereo not drawn) [Compound 1575, 4-[1"-benzoyloxy-2"-(N-imidazolyl)-ethyl]-biphenyl] | 66 mg/kg | 135 mg/kg | 27 mg/kg | 62 mg/kg |  |  |  | 1300 mg/kg |  |  | 
21 | O=C(CCn1ccnc1)c1ccc(CCc2ccccc2)cc1 [Compound 1585] |  |  | 25 mg/kg | 25 mg/kg | 25 mg/kg | 100 mg/kg |  |  |  |  | 
22 | C(=Cn1ccnc1)c1ccc(-c2ccccc2)cc1 [Compound 1598, 4-(N-imidazolyl-vinylene)-biphenyl] |  |  | 69 mg/kg | 80 mg/kg | 185 mg/kg | 145 mg/kg |  |  |  |  | 
23 | O=C1NC(=O)C(c2ccccc2)(c2ccccc2)N1 [Diphenylidantoin, diphenylidantoin, reference compound] | 6 mg/kg | 10 mg/kg |  |  |  |  |  |  |  | 6 mg/kg | 5 mg/kg
24 | CCC1(c2ccccc2)C(=O)NC(=O)NC1=O [Phenobarbital, phenobarbital, reference compound] |  |  | 9 mg/kg | 10 mg/kg | 14 mg/kg | 18 mg/kg | 242 mg/kg | 245 mg/kg |  |  | 
